Test [1] addresses T1, High affinity nerve growth factor receptor (Homo sapiens, UniProt P04629). Nature of the test: Inhibition of TRKA assessed as [gamma33P]ATP incorporation into substrate.
Target sequence in this assay (P04629 whole entry): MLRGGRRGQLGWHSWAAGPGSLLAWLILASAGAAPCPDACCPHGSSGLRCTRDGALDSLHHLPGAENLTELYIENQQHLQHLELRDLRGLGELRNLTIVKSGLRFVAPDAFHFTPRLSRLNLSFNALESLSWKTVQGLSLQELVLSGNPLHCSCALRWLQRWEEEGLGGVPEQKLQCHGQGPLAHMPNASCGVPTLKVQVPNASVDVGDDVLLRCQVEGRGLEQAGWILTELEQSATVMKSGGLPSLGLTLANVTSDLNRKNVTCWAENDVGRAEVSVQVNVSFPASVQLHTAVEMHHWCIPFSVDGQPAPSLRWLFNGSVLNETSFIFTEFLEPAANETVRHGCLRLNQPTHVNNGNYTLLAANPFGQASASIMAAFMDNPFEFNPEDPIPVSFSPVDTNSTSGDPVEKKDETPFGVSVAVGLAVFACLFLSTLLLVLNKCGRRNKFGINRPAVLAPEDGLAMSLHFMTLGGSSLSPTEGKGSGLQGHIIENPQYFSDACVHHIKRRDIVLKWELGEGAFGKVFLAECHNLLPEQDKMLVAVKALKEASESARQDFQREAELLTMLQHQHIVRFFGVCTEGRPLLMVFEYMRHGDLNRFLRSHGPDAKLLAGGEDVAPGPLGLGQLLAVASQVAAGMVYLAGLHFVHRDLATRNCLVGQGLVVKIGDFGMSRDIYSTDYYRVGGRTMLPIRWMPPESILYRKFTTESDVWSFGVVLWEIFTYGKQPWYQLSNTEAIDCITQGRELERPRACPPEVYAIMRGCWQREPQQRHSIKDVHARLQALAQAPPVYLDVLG
In another test the test system is MCF7. Nature of the test: cells. To be noted: Homo sapiens, MCF7, 48 h.
The target in test [2] is T2, Phosphatidylinositol 4,5-bisphosphate 3-kinase catalytic subunit alpha isoform (Homo sapiens, UniProt P42336). In words: Binding affinity to PI3Kalpha at 10 uM by high throughput binding assay relative to control.
T2 sequence (P42336 whole entry, canonical isoform): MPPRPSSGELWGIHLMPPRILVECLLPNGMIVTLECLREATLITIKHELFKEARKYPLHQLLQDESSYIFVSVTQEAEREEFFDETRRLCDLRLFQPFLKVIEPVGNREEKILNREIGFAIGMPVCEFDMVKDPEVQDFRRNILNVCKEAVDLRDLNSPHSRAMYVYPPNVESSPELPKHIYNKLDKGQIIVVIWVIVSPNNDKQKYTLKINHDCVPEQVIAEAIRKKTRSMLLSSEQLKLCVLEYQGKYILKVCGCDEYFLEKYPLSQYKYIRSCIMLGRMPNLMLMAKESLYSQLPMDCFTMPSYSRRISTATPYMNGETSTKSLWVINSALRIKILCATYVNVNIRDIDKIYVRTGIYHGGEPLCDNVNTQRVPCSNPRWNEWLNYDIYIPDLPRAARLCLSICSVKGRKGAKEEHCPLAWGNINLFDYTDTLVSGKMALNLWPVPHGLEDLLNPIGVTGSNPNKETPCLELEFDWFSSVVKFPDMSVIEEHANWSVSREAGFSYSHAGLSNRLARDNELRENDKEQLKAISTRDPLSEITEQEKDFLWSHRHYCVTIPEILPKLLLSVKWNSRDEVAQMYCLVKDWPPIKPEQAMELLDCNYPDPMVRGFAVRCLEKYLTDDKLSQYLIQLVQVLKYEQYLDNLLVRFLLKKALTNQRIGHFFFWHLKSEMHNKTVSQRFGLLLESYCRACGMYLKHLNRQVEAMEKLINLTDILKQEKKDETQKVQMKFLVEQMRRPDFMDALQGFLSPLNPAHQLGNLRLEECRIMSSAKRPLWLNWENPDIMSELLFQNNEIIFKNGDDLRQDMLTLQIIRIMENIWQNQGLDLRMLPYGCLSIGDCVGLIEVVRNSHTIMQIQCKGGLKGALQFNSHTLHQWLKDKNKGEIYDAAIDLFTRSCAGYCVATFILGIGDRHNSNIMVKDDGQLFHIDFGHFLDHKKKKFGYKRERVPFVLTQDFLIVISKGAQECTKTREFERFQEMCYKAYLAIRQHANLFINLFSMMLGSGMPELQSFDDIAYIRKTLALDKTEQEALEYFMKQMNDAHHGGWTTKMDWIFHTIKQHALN
Test [3] deals with T1, High affinity nerve growth factor receptor. Nature of the test: Binding affinity to TRKA by high throughput assay.
Target sequence in this assay (P04629 whole entry): as the sequence (P04629 whole entry) above
The target is the same in test [4]. Nature of the test: Binding affinity to TRKA at 10 uM by high throughput binding assay relative to control.
Target sequence in this assay (P04629 33-796 limits assumed): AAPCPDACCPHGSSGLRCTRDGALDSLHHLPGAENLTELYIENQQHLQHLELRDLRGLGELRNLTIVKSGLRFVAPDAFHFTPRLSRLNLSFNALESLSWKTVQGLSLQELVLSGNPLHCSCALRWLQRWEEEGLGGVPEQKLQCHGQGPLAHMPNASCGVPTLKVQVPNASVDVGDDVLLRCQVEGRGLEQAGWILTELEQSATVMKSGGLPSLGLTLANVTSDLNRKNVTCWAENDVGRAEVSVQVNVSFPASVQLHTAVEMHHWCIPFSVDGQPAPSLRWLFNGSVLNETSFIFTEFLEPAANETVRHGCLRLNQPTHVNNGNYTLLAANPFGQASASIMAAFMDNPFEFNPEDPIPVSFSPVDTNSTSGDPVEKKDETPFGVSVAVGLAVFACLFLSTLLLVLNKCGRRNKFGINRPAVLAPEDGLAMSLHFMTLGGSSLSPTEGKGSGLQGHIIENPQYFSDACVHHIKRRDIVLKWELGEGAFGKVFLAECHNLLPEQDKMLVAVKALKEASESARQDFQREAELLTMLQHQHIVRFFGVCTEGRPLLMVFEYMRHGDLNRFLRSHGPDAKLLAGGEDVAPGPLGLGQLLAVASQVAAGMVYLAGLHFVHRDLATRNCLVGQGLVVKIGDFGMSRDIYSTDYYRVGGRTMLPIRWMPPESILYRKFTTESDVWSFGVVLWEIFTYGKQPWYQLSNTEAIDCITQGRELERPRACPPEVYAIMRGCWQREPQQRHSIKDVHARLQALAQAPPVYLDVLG
A short description of test [5]: Selectivity ratio of Kd for PI3Kalpha to Kd for TRKA.
Test [6] deals with T2, Phosphatidylinositol 4,5-bisphosphate 3-kinase catalytic subunit alpha isoform. In words: Binding affinity to PI3Kalpha by high throughput assay.

A value given as a limit tells only on which side of the number the result lay.

As usually defined, the IC50 is the point on the concentration scale where inhibition reaches its midpoint. What is called Kd is the constant that tells how readily two partners part at equilibrium. Read a low Kd as tighter binding.

Description for MCF7: Cytotoxicity against human MCF7 cells after 48 hrs by MTT assay

Take `COc1cc(N)cc(-c2cnc3[nH]cc(-c4ccncc4)c3c2)c1`: the IC50 in test [1] came out at 18.6 nM; with MCF7, 8500 nM.
The corresponding values for `CS(=O)(=O)Nc1cc(N)cc(-c2cnc3[nH]cc(-c4ccncc4)c3c2)c1` are 33.8 nM and greater than 30000 nM.
As for `Nc1ccc(NS(=O)(=O)c2ccccc2)c(-c2cnc3[nH]cc(-c4ccncc4)c3c2)c1`, the IC50 in test [1] is 3170 nM.
As to `COc1ccc(-c2c[nH]c3ncc(-c4cncc(N)c4)cc23)cc1OC`, the Activity in test [2] came out at 12%; in test [4], 0.05%. Besides, the Kd came out at 58 nM in test [3] and 960 nM in test [6]. Also, the Selectivity ratio in test [5] was 17.
Regarding `CN(C)c1cccc(-c2cnc3[nH]cc(-c4ccncc4)c3c2)c1`, the IC50 turned out to be 26.5 nM in test [1] and 12100 nM with MCF7.
Turning to `Nc1cccc(-c2cnc3[nH]cc(-c4ccncc4)c3c2)c1`, the Activity in test [2] worked out at 31%; in test [4] it was 0%. In addition, the dissociation constant (Kd) in test [3] is 64 nM; in test [6] it was 2900 nM. Besides, the results for the half-maximal inhibitory concentration (IC50) (in test [1]; in the test with MCF7) were 42.7 nM and 2300 nM, respectively.
For `Nc1cccc(-c2cnc3[nH]cc(-c4ccccc4)c3c2)c1`, the Activity in test [2] was determined as 100%; in test [4], 0.3%. In addition, in test [3], the Kd came out at 88 nM.
On to `Cc1ccc(S(=O)(=O)Nc2cc(N)cc(-c3cnc4[nH]cc(-c5ccncc5)c4c3)c2)cc1`, for which the half-inhibitory concentration (IC50) was 4.62 nM in test [1] and 10400 nM in the test with MCF7.
Take `Nc1cncc(-c2cnc3[nH]cc(-c4ccncc4)c3c2)c1`: the figures for the IC50 (in test [1]; with MCF7) were 69.6 nM and 5100 nM, respectively.
Consider `CNc1cccc(-c2cnc3[nH]cc(-c4ccncc4)c3c2)c1`, for which the concentration for half-maximal inhibition (IC50) in test [1] came to 31.4 nM; in the test on MCF7, 4500 nM.
For the compound `COc1ccc(-c2c[nH]c3ncc(-c4cncc(NS(=O)(=O)c5ccccc5)c4)cc23)cc1OC`, the figures for the Activity in test [2] and in test [4] were 0.05% and 0.8%, respectively. Besides, the Kd is 145 nM in test [3] and 48 nM in test [6]. For the same compound, in test [5], the Selectivity ratio came to 0.33.
Regarding `Nc1cc(-c2cnc3[nH]cc(-c4ccncc4)c3c2)ccc1Cl`, the IC50 in test [1] turned out to be 53.7 nM; with MCF7 it was 12000 nM.
In the same order, the values of `CN(C)CCOc1ccc(-c2cnc3[nH]cc(-c4ccncc4)c3c2)cc1N` are 47 nM and 3100 nM.
In the same order, the values of `Nc1cc(C(=O)N2CCOCC2)cc(-c2cnc3[nH]cc(-c4ccncc4)c3c2)c1` are 64.7 nM and greater than 30000 nM.
The corresponding values for `Cc1ccc(-c2cnc3[nH]cc(-c4ccncc4)c3c2)cc1N` are 22.2 nM and 2800 nM.
Regarding `COc1ccc(-c2c[nH]c3ncc(-c4cccc(NS(=O)(=O)c5ccccc5)c4)cc23)cc1OC`, the Activity in test [2] stood at 31%; in test [4], 0.2%. Further, the Kd in test [3] was determined as 91 nM; in test [6], 2300 nM. In addition, in test [5], the Selectivity ratio is 25.
`Nc1cc(OCCN2CCOCC2)cc(-c2cnc3[nH]cc(-c4ccncc4)c3c2)c1`: the IC50 in test [1] amounted to 8.36 nM; with MCF7 it was 11200 nM.
The corresponding values for `COc1cccc(-c2cnc3[nH]cc(-c4ccncc4)c3c2)c1` are 22.7 nM and 11700 nM.
Take `N#Cc1cccc(-c2cnc3[nH]cc(-c4cccc(N)c4)c3c2)c1`: the Activity was determined as 48% in test [2] and 0.65% in test [4]. The Kd in test [3] amounted to 110 nM; in test [6], 12000 nM. Also, the Selectivity ratio in test [5] turned out to be 109.
In the case of `CC(=O)Nc1cc(N)cc(-c2cnc3[nH]cc(-c4ccncc4)c3c2)c1`, the IC50 is 5.41 nM in test [1] and greater than 30000 nM in the test on MCF7.
The corresponding values for `CC(=O)Nc1cccc(-c2cnc3[nH]cc(-c4ccncc4)c3c2)c1` are 34.3 nM and 9100 nM.
The corresponding values for `COc1ccc(-c2cnc3[nH]cc(-c4ccncc4)c3c2)cc1N` are 33.2 nM and 8700 nM.
In the same order, the values of `COc1ccc(N)cc1-c1cnc2[nH]cc(-c3ccncc3)c2c1` are 110 nM and 5400 nM.
With `COc1ccc(-c2c[nH]c3ncc(-c4cccc(C#N)c4)cc23)cc1OC`, the Activity in test [2] turned out to be 69%; in test [4], 26%.
For `N#Cc1cccc(-c2c[nH]c3ncc(-c4cccc(N)c4)cc23)c1`, the Activity in test [2] came out at 98%; in test [4], 2.6%. In test [3], this compound yielded a dissociation constant Kd of 270 nM.
Turning to `CS(=O)(=O)Nc1cccc(-c2c[nH]c3ncc(-c4cncc(NS(=O)(=O)c5ccccc5)c4)cc23)c1`, the Activity was 0.9% in test [2] and 9.6% in test [4].
With `CN(C)CCOc1cc(N)cc(-c2cnc3[nH]cc(-c4ccncc4)c3c2)c1`, the 50% inhibitory concentration (IC50) in test [1] is 13.6 nM; with MCF7, 11200 nM.
With `COc1ccc(-c2c[nH]c3ncc(-c4cccc(N)c4)cc23)cc1OC`, the values for the Activity in test [2] and in test [4] were 59% and 1.3%, respectively. In test [3], the Kd is 125 nM.
As for `Nc1cccc(-c2cnc3[nH]cc(-c4cccnc4)c3c2)c1`, the Activity amounted to 42% in test [2] and 0.2% in test [4]. For the same compound, the results for the Kd in test [3] and in test [6] were 75 nM and 4500 nM, respectively. Further, in test [5], the Selectivity ratio came out at 60.
`Nc1cc(-c2cnc3[nH]cc(-c4ccncc4)c3c2)ccc1C(=O)N1CCOCC1`: the IC50 was found to be 88.6 nM in test [1] and 8500 nM with MCF7.
As to `Nc1cc(NS(=O)(=O)c2ccccc2)cc(-c2cnc3[nH]cc(-c4ccncc4)c3c2)c1`, the half-maximal inhibitory concentration (IC50) came to 9.4 nM in test [1] and 8800 nM with MCF7.
The corresponding values for `Nc1ccc(-c2cnc3[nH]cc(-c4ccncc4)c3c2)cc1` are 25 nM and 7700 nM.
In the same order, the values of `Nc1cc(NS(=O)(=O)c2ccc(F)cc2F)cc(-c2cnc3[nH]cc(-c4ccncc4)c3c2)c1` are 2.97 nM and 6600 nM.

(Values after ChEMBL document CHEMBL2150859, “Design, synthesis, and evaluation of 3,5-disubstituted 7-azaindoles as Trk inhibitors with anticancer and antiangiogenic activities” (J Med Chem, 2012).)
